Columns and labels:
Test in all cases: NCI-60 antiproliferative screen (SRB)
HL-60(TB) = type: cell-based, human; settings: 48 h
MOLT-4 = type: cell-based; settings: Homo sapiens, 48 h
EKVX = type: cell-based, human; settings: 48 h
HOP-62 = type: cell-based, human; settings: 48 h
NCI-H226 = type: cell-based, human; settings: 48 h
NCI-H322M = type: cell-based, human; settings: five-dose, 48 h, NCI-H322M
NCI-H522 = type: cell-based, human; settings: 48 h
COLO 205 = type: cell-based, human; settings: 48 h
HCC-2998 = type: cell-based, human; settings: 48 h
HCT-15 = type: cell-based, human; settings: 48 h
HT29 = type: cell-based, human; settings: 48 h
KM12 = type: cell-based, human; settings: 48 h
SW-620 = type: cell-based, human; settings: 48 h
SF-539 = type: cell-based, human; settings: 48 h
SNB-19 = type: cell-based, human; settings: 48 h
LOX IMVI = type: cell-based, human; settings: 48 h

## O=C1Nc2cc(Cl)ccc2C1=Cc1ccc(OCc2cccnc2)cc1 (mixture of isomers) [Compound 5l, (E/Z)-6-Chloro-3-[4-(pyridin-3-ylmethoxy)benzylidene] indolin-2-one]
HL-60(TB); Homo sapiens, HL-60, five-dose, HL60(TB)
  GI50: 4.08 µM
HL-60(TB); Homo sapiens, HL-60, five-dose, HL60(TB), read-out: LC50 (the source's name)
  CC50: > 100 µM
HL-60(TB); Homo sapiens, 10 µM single dose, HL-60(TB) (Leukemia), read-out: Growth inhibition (%)
  inhibition at 10 µM: 95.5%
HL-60(TB); five-dose, HL60(TB)
  TGI: >100 µM
MOLT-4; 10 µM single dose, MOLT-4 (Leukemia), read-out: Growth inhibition (%)
  inhibition at 10 µM: 98.1%
MOLT-4; five-dose, MOLT-4
  GI50: 2.99 µM
MOLT-4; five-dose, MOLT-4, read-out: LC50 (the source's name)
  CC50: > 100 µM
EKVX; Homo sapiens, 10 µM single dose, EKVX (NSCLC), read-out: Growth inhibition (%)
  inhibition at 10 µM: 60.9%
EKVX; Homo sapiens, five-dose, EKVX
  GI50: 6.02 µM
EKVX; five-dose, EKVX
  TGI: >100 µM
HOP-62; Homo sapiens, 10 µM single dose, HOP-62 (NSCLC), read-out: Growth inhibition (%)
  inhibition at 10 µM: 72.9%
HOP-62; Homo sapiens, five-dose, HOP-62
  GI50: 12.9 µM
HOP-62; Homo sapiens, five-dose, HOP-62, read-out: LC50 (the source's name)
  CC50: > 100 µM
HOP-62; five-dose, HOP-62
  TGI: >100 µM
NCI-H226; Homo sapiens, 10 µM single dose, NCI-H226 (NSCLC), read-out: Growth inhibition (%)
  inhibition at 10 µM: 62.9%
NCI-H226; Homo sapiens, five-dose, NCI-H226
  GI50: 9 µM
NCI-H226; five-dose, NCI-H226
  TGI: 70.00 µM
NCI-H322M; Homo sapiens
  GI50: 23.2 µM
NCI-H322M
  TGI: >100 µM
NCI-H522; Homo sapiens, 10 µM single dose, NCI-H522 (NSCLC), read-out: Growth inhibition (%)
  inhibition at 10 µM: 104%
NCI-H522; Homo sapiens, five-dose, NCI-H522
  GI50: 12.3 µM
NCI-H522; five-dose, NCI-H522
  TGI: 82.20 µM
COLO 205; Homo sapiens, 10 µM single dose, COLO 205 (Colon), read-out: Growth inhibition (%)
  inhibition at 10 µM: 96.4%
COLO 205; Homo sapiens, five-dose, COLO 205
  GI50: 9.62 µM
COLO 205; five-dose, COLO 205
  TGI: >100 µM
HCC-2998; Homo sapiens, 10 µM single dose, HCC-2998 (Colon), read-out: Growth inhibition (%)
  inhibition at 10 µM: 50.9%
HCC-2998; Homo sapiens, five-dose, HCC-2998
  GI50: 13.7 µM
HCC-2998; Homo sapiens, five-dose, HCC-2998, read-out: LC50 (the source's name)
  CC50: > 100 µM
HCC-2998; five-dose, HCC-2998
  TGI: >100 µM
HCT-15; Homo sapiens, 10 µM single dose, HCT-15 (Colon), read-out: Growth inhibition (%)
  inhibition at 10 µM: 97.2%
HCT-15; Homo sapiens, five-dose, HCT-15
  GI50: 3.46 µM
HCT-15; five-dose, HCT-15
  TGI: 25.20 µM
HT29; Homo sapiens, HT-29, 10 µM single dose, HT29 (Colon), read-out: Growth inhibition (%)
  inhibition at 10 µM: 90.3%
HT29; Homo sapiens, HT-29, five-dose, HT29
  GI50: 6.45 µM
HT29; Homo sapiens, HT-29, five-dose, HT29, read-out: LC50 (the source's name)
  CC50: > 100 µM
HT29; five-dose, HT29
  TGI: 37.80 µM
KM12; Homo sapiens, 10 µM single dose, KM12 (Colon), read-out: Growth inhibition (%)
  inhibition at 10 µM: 99.7%
KM12; Homo sapiens, five-dose, KM12
  GI50: 5.3 µM
KM12; five-dose, KM12
  TGI: >100 µM
SW-620; Homo sapiens, 10 µM single dose, SW-620 (Colon), read-out: Growth inhibition (%)
  inhibition at 10 µM: 92.7%
SW-620; Homo sapiens, five-dose, SW-620
  GI50: 2.76 µM
SW-620; five-dose, SW-620
  TGI: >100 µM
SF-539; Homo sapiens, 10 µM single dose, SF-539 (CNS), read-out: Growth inhibition (%)
  inhibition at 10 µM: 59.3%
SF-539; Homo sapiens, five-dose, SF-539
  GI50: 13.6 µM
SF-539; five-dose, SF-539
  TGI: >100 µM
SNB-19; Homo sapiens, 10 µM single dose, SNB-19 (CNS), read-out: Growth inhibition (%)
  inhibition at 10 µM: 56.2%
SNB-19; Homo sapiens, five-dose, SNB-19
  GI50: 12.4 µM
SNB-19; five-dose, SNB-19
  TGI: >100 µM
LOX IMVI; Homo sapiens, LOX IMVI, five-dose, LOX IMVI, read-out: LC50 (the source's name)
  CC50: 96.9 µM
LOX IMVI; Homo sapiens, 10 µM single dose, LOX IMVI (Melanoma), read-out: Growth inhibition (%)
  inhibition at 10 µM: 91%
LOX IMVI; Homo sapiens, five-dose, LOX IMVI
  GI50: 4.7 µM
LOX IMVI; five-dose, LOX IMVI
  TGI: 24.80 µM
